The source of these data is patent US7618978B2, “Amides as BACE inhibitors” (Eli Lilly and Company, priority 2004, dated 2009).

In assay [1] the target is T1, human BACE1(1-460):Fc (Homo sapiens, UniProt P56817).
T1 construct: made in house; host or cells: HEK293 cells, transient transfection, conditioned medium
As to the kind of experiment: BACE1 mcaFRET Assay. The class given is biochemical. The note with it: FRET substrate 15 micromolar, pH 4.6, 16 to 24 hours at room temperature. On the procedure: (§1) For in vitro enzymatic and cellular assays, test compounds are prepared in DMSO to make up a 10 millimolar stock solution. The stock solution is serially diluted (in a 1:3, 1:2.5, 1:2, or 1:1 dilution series) in DMSO to obtain a final compound concentration of 10 millimolar to 1 micromolar at the first highest concentration of a ten-point dilution curve in a 96-well round-bottom plate right before conducting the in vitro enzymatic and whole assays.
Serial dilutions of test compounds are prepared as described above. Two microliter of each dilution is added to each well on row A to H of a corresponding low protein binding black plate to which 50 microliter of 50 millimolar ammonium acetate, pH 4.6, 1 mM Triton X-100, 1 mg/ml Bovine Serum Albumin, and 15 micromolar of FRET substrate (sequence: (MCA)-S-E-V-N-L-D-A-E-F-R-K(Dnp)-R-R-R-R-NH2) for BACE1 activity are pre-added. The content is mixed well on a plate shaker for 10 min. Fifty microliter of two hundred picomolar human BACE1(1-460):Fc (See: Vasser, et al., Science, 286, 735-741 (1999)) in the same reaction buffer described above is added to the plate containing substrate and test compounds to initiate the reaction. The relative fluorescence unit (RFU) of the mixture at time 0 is recorded at excitation wavelength 330 nm and emission wavelength 400 nm, after brief mixing on a plate shaker. The reaction plate is covered with aluminum foil and kept in a dark humidified oven at room temperature for 16 to 24 hours. The RFU at the end of incubation is recorded with the same excitation and emission setting. The difference of the RFU at time 0 and the end of incubation represents the activity of BACE1 under the compound-treatment. The 10-point inhibition curve was plotted and fitted with the four-parameter logistic equation to obtain the EC50 and IC50 values. (See: Sinha, et al., Nature, 402, 537-540 (2000)). […] Data for selected compounds of the invention tested in this assay are contained in the following table.
Both human (accession number: AF190725) and murine (accession number: NM_011792) BACE1 were cloned from total brain cDNA by […]. The nucleotide sequences corresponding to amino acid sequences #1 to 460 were inserted into the cDNA encoding human IgG1 (Fc) polypeptide (Vassar et al. 1999). This fusion protein of BACE1(1-460) and human Fc, named huBACE1:Fc, was constructed into the pJB02 vector. Human BACE1(1-460):Fc (huBACE1:Fc) and murine BACE1(1-460):Fc (muBACE1:Fc) were transiently expressed in HEK293 cells. 250 μg cDNA of each construct was mixed with Fugene 6 and added to 1 liter HEK293 cells. Four days after the transfection, conditioned media were harvested for purification. Purification of huBACE1:Fc and muBACE1:Fc.
Conditioned media of […] cell transiently transfected with huBACE1:Fc or muBACE1:Fc cDNA were collected. Cell debris was removed by filtering the conditioned media through 0.22 μm sterile filter. 5 ml Protein A-agarose (bed volume) was added to 4 liter conditioned media. This mixture was gently stirred overnight at […]. The Protein A-agarose resin was collected and packed into a low-pressure chromatography column. The column was washed with 20× bed volumes of PBS at flow rate 20 ml per hour. Bound huBACE1:Fc or muBACE1:Fc protein was eluted with 50 mM acetic acid, pH 3.6, at flow rate 20 ml per hour. […] The purity of final product was assessed by electrophoresis in 4-20% Tris-Glycine SDS-PAGE. […]

The target of assay [2] is T2, beta-secretase activity (Homo sapiens, UniProt P56817).
T2 construct: endogenous in cells; host or cells: HEK293p (ATCC CRL-1573) stably expressing human APP751sw or APP751wt
As to the kind of experiment: Whole Cell Assay for Measuring the Inhibition of Beta-Secretase Activity. The class given is cell-based. The note with it: HEK293/APP751sw or HEK293/APP751wt cells, 4 to 6 hours at 37C, Abeta, sAPPbeta-lowering effect by sandwich ELISA. On the procedure: as §1
The routine whole cell assay for the measurement of inhibition of beta-secretase activity utilizes the human embryonic kidney cell line HEK293p (ATCC Accession No. CRL-1573) stably expressing a human APP751 cDNA containing the naturally occurring double mutation […] to Asn651Leu652, commonly called the Swedish mutation (noted HEK293/APP751sw) and shown to overproduce Abeta (Citron et al., 1992, Nature 360:672-674). Human embryonic kidney HEK293p cells stably expressing wild-type human APP751 cDNA (noted HEK293/APP751wt) are also used to assess the inhibition of beta-secretase activity. In vitro Aβ reduction assays have been described in the literature (See: Dovey, et al., Journal of Neurochemistry, 76, 173-181 (2001); Seubert, et al., Nature, 361, 260 (1993); and Johnson-Wood, et al., Proc. Natl. Acad. Sci. USA, 94, 1550-1555 (1997))
Cells (HEK293/APP751sw or HEK293/APP751wt, at 3×10^4 cells/well, containing 200 microliters culture media, DMEM containing 10% FBS) are incubated at 37C for 4 to 6 hours in the presence/absence of inhibitors (diluted in DMSO) at the desired concentration. At the end of the incubation, conditioned media are analyzed for beta-secretase activity, for example, by analysis of cleavage fragments, Abeta peptide and sAPPbeta. Abeta peptides are measured by a sandwich ELISA, using monoclonal 266 as a capture antibody and biotinylated 3D6 as reporting antibody. The sAPPbeta fragments are analyzed by a sandwich ELISA, using monoclonal 8E5 antibody as a capture antibody and rabbit polyclonal 192sw or 192wt as a reporting antibody. Note that sAPPbeta is the cleavage product of full length APP by BACE 1. The concentration of sAPPbeta released in the conditioned media following the compound treatment corresponds to the activity of BACE1 under such conditions. The 10-point inhibition curve was plotted and fitted with the four-parameter logistic equation to obtain the EC50 and IC50 values for the Abeta, sAPPbeta-lowering effect. Data for selected compounds of the invention tested in this assay are contained in the following table.
(ELISA stands for enzyme-linked immunosorbent assay.)

Structures can show the parent of a compound that is named as a salt.

T1 sequence (P56817 22-460): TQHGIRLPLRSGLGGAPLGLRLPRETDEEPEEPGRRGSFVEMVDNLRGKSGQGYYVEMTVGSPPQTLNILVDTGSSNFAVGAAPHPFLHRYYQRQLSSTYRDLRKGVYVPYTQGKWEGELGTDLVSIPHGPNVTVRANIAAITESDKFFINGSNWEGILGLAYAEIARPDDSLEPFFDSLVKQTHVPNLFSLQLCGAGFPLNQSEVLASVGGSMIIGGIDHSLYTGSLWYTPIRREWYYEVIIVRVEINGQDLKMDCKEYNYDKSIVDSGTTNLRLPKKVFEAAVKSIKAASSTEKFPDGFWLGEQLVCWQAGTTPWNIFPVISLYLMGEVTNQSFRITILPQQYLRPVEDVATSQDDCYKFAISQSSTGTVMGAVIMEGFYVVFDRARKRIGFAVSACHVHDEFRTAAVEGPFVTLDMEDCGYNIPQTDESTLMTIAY
T2 sequence (P56817 46-501): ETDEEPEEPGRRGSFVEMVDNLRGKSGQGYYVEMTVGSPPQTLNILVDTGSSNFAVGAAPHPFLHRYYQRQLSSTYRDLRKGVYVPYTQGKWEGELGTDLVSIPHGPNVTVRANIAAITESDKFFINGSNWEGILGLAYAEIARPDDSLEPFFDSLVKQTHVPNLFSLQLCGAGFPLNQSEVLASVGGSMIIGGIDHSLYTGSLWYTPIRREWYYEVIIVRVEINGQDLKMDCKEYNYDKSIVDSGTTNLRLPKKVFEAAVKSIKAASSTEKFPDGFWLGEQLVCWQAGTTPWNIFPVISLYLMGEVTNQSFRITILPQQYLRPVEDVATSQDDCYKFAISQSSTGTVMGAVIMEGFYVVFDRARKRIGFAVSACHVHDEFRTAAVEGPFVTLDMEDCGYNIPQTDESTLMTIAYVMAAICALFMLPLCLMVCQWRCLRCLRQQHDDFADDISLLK

For orientation: IC50 means the concentration at which inhibition is half-maximal. As for `CCC(C)Nc1cc(C(=O)NC(Cc2ccccc2)C(O)C2NCCN(C)C2=O)cc(N(C)S(C)(=O)=O)n1` [Example 3, N-[1-(S)-Benzyl-2-hydroxy-2-(4-methyl-3-oxopiperazin-2-yl)-ethyl]-2-(S)-sec-butylamino-6-(methylsulfonyl-methylamino)-isonicotinamide hydrochloride], the IC50 in assay [1] worked out at 0.001 µM; in assay [2] it was 0.041 µM.

On to `CCC(C)Nc1cc(C(=O)N[C@@H](Cc2ccccc2)[C@@H](O)[C@H]2CN(C(C)=O)CCN2)cc(N(C)S(C)(=O)=O)n1` (stereo partly drawn) [Example 7, N-[(1S,2R)-2-(R)-(4-Acetylpiperazin-2-yl)-1-benzyl-2-hydroxyethyl]-2-sec-butylamino-6-(methanesulfonyl-methylamino)-isonicotinamide hydrochloride], for which the results for the IC50 in assay [1] and in assay [2] were 0.003 µM and 0.045 µM, respectively.

For the compound `CC(=O)NC(Cc1cc(F)cc(F)c1)C(O)C1CCC(OCc2ccccc2)CN1` [Example 19, N-{(1S,2R)-2-[(5R,2R)-5-Benzyloxy-2-piperidin-2-yl]-1-(3,5-difluoro-benzyl)-2-hydroxy-ethyl}-acetamide hydrochloride], the values for the half-inhibitory concentration (IC50) in assay [1] and in assay [2] were 13.1 µM and 17.1 µM, respectively.

For `CC(=O)N[C@@H](Cc1cc(F)cc(F)c1)[C@H](O)[C@H]1CC[C@@H](OCCC(C)C)CN1` [Example 55, N-(1S, 2R)-{1-(3,5-Difluoro-benzyl)-2-hydroxy-2-[(5R,2R)-5-(3-methyl-butoxy)-piperidin-2-yl]-ethyl}-acetamide hydrochloride], the IC50 in assay [1] was 6.9 µM; in assay [2] it was 6.1 µM.

`CC(=O)N[C@@H](Cc1cc(F)cc(F)c1)[C@H](O)[C@H]1CC[C@@H](OCC(C)C)CN1` [Example 58, N-(1S,2R)-{1-(3,5-Difluoro-benzyl)-2-hydroxy-2-[(5R,2R)-5-isobutoxy-piperidin-2-yl]-ethyl}-acetamide hydrochloride] yielded an IC50 in assay [1] of 6.8 µM.
